Data: patent US6720136B2, “Solid phase quenching systems” (V. I Technologies, Inc., priority 1998, dated 2004)

Test: Quenching of ethyleneimine dimer in whole CPD human blood, EID concentration in plasma and RBC fractions by HPLC
Method: 50 μl of 120 mM ethyleneimine dimer (EID, PEN102) in 0.25 M NaH2PO4 was added to 0.9 ml of whole human CPD blood (final concentration of EID was 6 mM, 6 μmole total), and incubated at 23° C. for 4 hours. At the end of the 4-hour incubation period, 68 mg (50 μmole-equivalents of phosphothiomonoester groups) of ArgoPore-Thiophosphate support (prepared as described in Example 2) was added. In the parallel experiment, 50 μl of 1 M Na2S2O3 (final concentration 50 mM) was added to same amount of EID treated blood. Both samples were allowed to incubate for 2 hours at 23° C. The red blood cell (RBC) and plasma fraction of the blood were separated by centrifugation (10,000 rpm, 5 min), and the RBCs were opened by adding 9 volumes of water. The concentration of EID was determined in the RBC fraction and in the plasma fraction of the blood by HPLC (FIG. 6).

O=S(O)(O)=S [sodium thiosulfate]
concentration of ethyleneimine dimer in plasma fraction after quenching (6 mM EID for 4 hours at 23° C., then quencher (50 μmole-equivalents support or 50 mM Na2S2O3) for 2 hours at 23° C., plasma): 6.8 µg/mL | concentration of ethyleneimine dimer in red blood cell fraction after quenching (6 mM EID for 4 hours at 23° C., then quencher (50 μmole-equivalents support or 50 mM Na2S2O3) for 2 hours at 23° C., red blood cells): 2.2 µg/mL | quenching of ethyleneimine dimer in blood (in words) (6 mM EID, quencher 2 hours at 23° C.): capable of quenching ethyleneimine dimer
